The test system of one test is mouse primary adipocytes. Kind of test: Immunoblot of signaling in primary adipocytes. Format: cell-based. Here is the method: Epidydimal adipose tissue excised from mice was digested with collagenase (1 mg/ml) in Krebs-Ringer medium (120 mM NaCl, 4.7 mM KCl, 1.2 mM KH2PO4, and 1.2 mM MgSO4) containing 25 mM Hepes (pH 7.4), 200 nM adenosine, 2 mM glucose, and 3% (w/v) bovine serum albumin (BSA) (KRH buffer) at 37°C in a shaking incubator. Adipocytes were isolated by filtering and washing in KRH buffer. For preparation of protein extracts for Western blot, adipocyte suspensions [0.7 to 1 ml of 10% (v/v) cells] were preincubated with BAY-3827 or BAY-974 compounds or 0.1% DMSO for 1 hour at 37°C in a shaking (80 rpm) water bath followed by either 1 hour of incubation with 10 μM MK-8722 or 30 min with 0.1 nM insulin (Novo Nordisk) in KRH buffer, as indicated in the figure legends. […] Lysates were centrifuged at 13,000g for 15 min (4°C), and supernatant protein concentration was determined by the Bradford assay. […]
For adipocyte experiments, cell lysates (25 μg protein) were heated at 95°C for 3 min in LDS sample buffer, subjected to polyacrylamide gel electrophoresis on precast Novex gradient gels (Thermo Fisher Scientific) and electrotransferred to nitrocellulose membranes. […] Luminescence signals were visualized in a ChemiDoc XRS+ (Bio-Rad) and quantified by densitometry using the software Image LabTM 5.1 (Bio-Rad). […]
Background: In western blotting, separated proteins are transferred to a membrane and probed.

Test [1] concerns AMPKα1α2−/− DKO primary hepatocytes. Nature of the test: Lipogenesis assay ([14C]-acetate incorporation into fatty acids). Format: cell-based, mouse. The procedure:
Mouse hepatocytes were isolated by collagenase perfusion as previously described ([47]). Hepatocytes were seeded in medium Eagle-199 (MEM-199) (#41150, Thermo Fisher Scientific) containing penicillin G (100 U/ml), streptomycin (100 μg/ml), and 10% (v/v) fetal bovine serum (FBS). Hepatocytes were left for attachment (3 to 4 hours) and serum-starved overnight at 37°C with 5% CO2 in MEM-199 supplemented with penicillin G (100 U/ml), streptomycin (100 μg/ml), 10 nM insulin, and 100 nM dexamethasone. […] Cells were then harvested in 0.5 ml of phosphate-buffered saline (PBS), transferred into 1 ml of 40% KOH and 2 ml of methanol followed by 1-hour incubation at 80°C. Lipids were […] by acidifying the samples in 37% HCl and extracted with petroleum ether. Extracts were allowed to evaporate to dryness and then dissolved in Ultima Gold scintillation fluid for determination of [^14C]-acetate incorporation into lipids.

Results on one compound are retold here after PMC12372887, “Mechanism and cellular actions of the potent AMPK inhibitor BAY-3827” (Science Advances, 2025).

`CCc1ccccc1C(=O)Nc1n[nH]c2c(C)c(F)c(C3C(C#N)=C(C)N(C)C(C)=C3C#N)cc12` [BAY-3827, N-[5-(3,5-dicyano-1,2,6-trimethyl-4H-pyridin-4-yl)-6-fluoro-7-methyl-1H-indazol-3-yl]-2-ethylbenzamide]: the “basal and insulin-stimulated phosphorylation of Akt and TBC1D4” value in the test with mouse primary adipocytes (10 μM) is recorded as “not significantly affected”. Besides, the Raptor phosphorylation entry in the test with mouse primary adipocytes (varying doses, irrespective of MK-8722) is “dose-dependent reduction”. Moreover, the effect on lipogenesis result in test [1] is listed as “no effect”.
